# Where two headings read alike, the source gives them in different places.
# Tests used:
# A. viscosus = assay: Determination of MIC of individual essential oils (broth microdilution, O.D. at 610 nm); assay type: cell-based, A. viscosus ATCC 43146; settings: for MIC: Actinomyces viscosus
# Protocol: Minimum inhibitory concentration (MIC) is assessed as follows: A 96-well microtiter plate is inoculated with 100 μl of TSB (Tryptic Soy Broth) media in each well. Stock solutions of the active are prepared as required (w/v basis) in percent. The different stock solutions (>1%) are used to achieve the final MIC concentration of the actives. The positive control (Triclosan) is prepared as a 0.1% stock solution. Each active is diluted 1:10 using sterile TSB. 100 μl of the stock solution is added in the first column for the actives and the controls. Transfer 100 μl of the solution from the first column to the next, mix and repeat the transfer to serially dilute 2-fold across the plate. The last 100 μl is discarded. Prepare 0.2-0.3 O.D. activated culture of A. viscosus ATCC 43146 grown in TSB overnight at 37° C. Add 100 μl of the adjusted bacterial culture to each well. Incubate the plates for 24 hours at 37° C. Determine the growth by measuring the O.D. at 610 nm. The data is transferred to an Excel spreadsheet for comparison of the O.D. values. The concentration higher than the lowest concentration with large increment in O.D. is taken as the MIC. Depending on the value obtained the MIC is repeated using higher or lower concentrations of the stock solution. This gives the closest value of the concentration determined by serial dilution at which the microorganism is inhibited (MIC).
# [1] = cited from earlier work
# [2] = individual essential oils against A. viscosus, 24 hours at 37° C
# [3] = individual essential oils against A. viscosus, 24 hours at 37° C, read-out: MIC value (ppm)
# [4] = Table 3, essential oil alone, read-out: Individual MIC (concentration of each essential oil alone necessary to produce the same effect)
compound,measurement,setting,value
CCCc1ccc(O)c(OC)c1 [Dihydro-eugenol],MIC value (ppm),A. viscosus; [2],500 ppm
CC12CCC(CC1)C(C)(C)O2 [Eucalyptol],MIC,A. viscosus; [3],250 µg/mL
COC(=O)c1ccccc1O [Methyl salicylate],MIC,A. viscosus; [3],1000 µg/mL
O=C([O-])CC(O)(CC(=O)[O-])C(=O)[O-].O=C([O-])CC(O)(CC(=O)[O-])C(=O)[O-].[Zn+2].[Zn+2].[Zn+2] [Zinc citrate],MIC value (ppm),A. viscosus; [2],160 ppm
Catechins hydrate,MIC value (ppm),A. viscosus; [2],100 ppm
"CC(C)=CCC[C@](C)(O)[C@@H]1CC=C(C)CC1 [bisabolol, α-(−)-bisabolol]",Solubility in ethanol,[1]; ethanol,soluble
same,Solubility in water and glycerin,[1]; water and glycerin,almost insoluble
C=CCc1ccc(O)c(OC)c1 [Eugenol],MIC,A. viscosus; [3],2000 µg/mL
"Cc1ccc(C(C)C)c(O)c1 [Thymol (98% pure), Thymol]",MIC,A. viscosus; [4],900 µg/mL
same,MIC,A. viscosus; [3],900 µg/mL
Cc1cc(O)ccc1C(C)C [IPMP (99.8% pure)],MIC value (ppm),A. viscosus; [2],160 ppm
OCc1ccccc1 [Benzyl alcohol],MIC,A. viscosus; [3],700 µg/mL
α-(±)-bisabolol [Syn. Bisabolol],Individual MIC (concentration of each essential oil alone necessary to produce the same effect),"A. viscosus; Table 3, essential oil alone",125 ppm
same,MIC value (ppm),A. viscosus; [2],125 ppm
[O]=[Zn] [Zinc oxide],MIC value (ppm),A. viscosus; [2],625 ppm
"Cc1ccc(C(C)C)cc1O [Carvacrol, carvacrol]",MIC,"A. viscosus; 24 h, read-out: MIC value (ppm)",80 µg/mL
same,MIC,A. viscosus; read-out: Individual MIC (concentration of each essential oil alone necessary to produce the same effect),80 µg/mL
same,Individual MIC (concentration of each essential oil alone necessary to produce the same effect),"A. viscosus; Table 3, essential oil alone",80 ppm
CC(C)=CCCC(C)=CC=O [Citral],MIC,A. viscosus; [4],250 µg/mL
same,MIC,A. viscosus; [3],250 µg/mL

# From patent publication US9655838B2, “Antimicrobial compositions comprising essential oil combinations” (priority 2013, dated 2017)
